Where two headings read alike, the source gives them in different places.
Tests used:
[1] = molecular target: T1, JAK3 (Homo sapiens, UniProt P52333); assay: JAK3 biochemical assay (ADP-GLO Kinase Assay); settings: for JAKs/HPK1 IC50 Ratio, B*: first testing facility
T1 construct: purchased Thermo fisher PV3855
Summary of the method: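 Human JAK3 (0.78 ng) with 0.2 μg/μL Poly(E4Y1) and 4 μM ATP in 40 mM Tris pH 7.5, 20 mM MgCl2, 0.1 mg/ml BSA, 50 μM DTT, 1% DMSO; 60 min at 25 °C. ADP formed read by ADP-Glo luminescence. 10-dose 3-fold series from 10 μM; IC50 by three-parameter logistic fit.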

[2] = molecular target: HPK1 (Homo sapiens, UniProt Q92918); assay: HPK1 biochemical assay (ADP-GLO Kinase Assay)
Summary of the method: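 HPK1 (0.6 ng/μL final) activity was followed with MBP substrate and 10 μM ATP in Tris pH 7.5/MgCl2/BSA/DTT buffer, measured by ADP-Glo luminescence. Compounds were tested as 3-fold dilutions from 10 μM. IC50 came from a three-parameter logistic fit, with inhibition normalised to high/low controls.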

[3] = B*: testing performed in a first testing facility, read-out: JAK3 IC50 (nM) Relative, B*
[4] = ratio of JAK3 IC50 to HPK1 IC50
[5] = B*: testing performed in a first testing facility, read-out: HPK1 IC50 (nM) Relative, B*

T1 sequence (P52333 781-1124 limits assumed): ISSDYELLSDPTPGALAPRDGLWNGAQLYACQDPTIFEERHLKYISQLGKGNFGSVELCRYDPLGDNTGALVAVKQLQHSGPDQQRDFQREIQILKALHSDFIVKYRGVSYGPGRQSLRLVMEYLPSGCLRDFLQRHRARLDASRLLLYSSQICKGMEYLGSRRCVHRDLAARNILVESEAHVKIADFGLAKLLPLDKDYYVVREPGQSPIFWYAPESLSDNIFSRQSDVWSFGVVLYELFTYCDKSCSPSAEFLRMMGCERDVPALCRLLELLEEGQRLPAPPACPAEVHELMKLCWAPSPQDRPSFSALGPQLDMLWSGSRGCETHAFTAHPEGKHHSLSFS
Chain of HPK1 (Q92918 whole entry): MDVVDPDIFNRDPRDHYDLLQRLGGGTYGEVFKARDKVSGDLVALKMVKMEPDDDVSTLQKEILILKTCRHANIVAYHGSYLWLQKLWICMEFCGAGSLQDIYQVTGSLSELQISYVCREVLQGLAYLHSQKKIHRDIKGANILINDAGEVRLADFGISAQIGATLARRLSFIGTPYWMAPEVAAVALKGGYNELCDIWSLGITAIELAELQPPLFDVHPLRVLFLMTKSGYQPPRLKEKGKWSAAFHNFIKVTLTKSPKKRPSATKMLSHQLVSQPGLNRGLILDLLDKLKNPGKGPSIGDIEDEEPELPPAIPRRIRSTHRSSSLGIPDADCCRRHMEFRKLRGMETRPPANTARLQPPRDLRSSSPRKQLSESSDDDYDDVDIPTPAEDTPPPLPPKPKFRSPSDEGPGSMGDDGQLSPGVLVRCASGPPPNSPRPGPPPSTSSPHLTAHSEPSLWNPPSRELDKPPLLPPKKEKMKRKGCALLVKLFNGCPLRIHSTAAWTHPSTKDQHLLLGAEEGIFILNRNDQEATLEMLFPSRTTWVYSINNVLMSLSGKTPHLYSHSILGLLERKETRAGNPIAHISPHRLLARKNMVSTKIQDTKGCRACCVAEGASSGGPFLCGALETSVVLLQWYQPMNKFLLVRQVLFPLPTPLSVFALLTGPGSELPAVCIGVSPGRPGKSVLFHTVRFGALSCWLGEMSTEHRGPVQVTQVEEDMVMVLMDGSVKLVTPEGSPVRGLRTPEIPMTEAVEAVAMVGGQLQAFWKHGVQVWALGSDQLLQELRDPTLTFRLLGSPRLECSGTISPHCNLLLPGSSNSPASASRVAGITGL

Row | SMILES | IC50 [1, 3] | JAKs/HPK1 IC50 Ratio, B* [1, 4] | IC50 [2, 5] | IC50 ([1]; N*: testing performed in a second testing facility, read-out: JAK3 IC50 (nM) Relative, N*) | JAKs/HPK1 IC50 Ratio, N* ([1]; ratio of JAK3 IC50 to HPK1 IC50, second testing facility) | IC50 ([2]; N*: testing performed in a second testing facility, read-out: HPK1 IC50 (nM) Relative, N*)
1 | COc1cc2c(cc1Nc1ncc(Cl)c(-n3cc(CC(=O)NCC#N)c4ccccc43)n1)CN(C)CC2 [Example 137] | > 1000 nM | 1304 | ≤ 100 nM |  |  | 
2 | COc1cc2c(cc1Nc1ncc(Cl)c(-n3cc(CC(=O)O)c4cc(F)c(F)cc43)n1)CN(C)CC2 [Example 140] | 500 to 1000 nM | 783 | ≤ 100 nM |  |  | 
3 | COc1cc2c(cc1Nc1ncc(Cl)c(N3CC(C)(CC(=O)O)c4ccccc43)n1)CN(C)C2 (stereo not shown) [Example 159, 2-(1-(5-Chloro-2-((6-methoxy-2-methylisoindolin-5-yl)amino)pyrimidin-4-yl)-3-methylindolin-3-yl)acetic acid] | ≤ 100 nM | 71 | ≤ 100 nM |  |  | 
4 | COC(=O)C1CN(c2nc(Nc3cc4c(cc3OC)CCN(C)C4)ncc2C(F)F)c2ccccc21 (stereo not shown) [Example 112] | > 1000 nM | >3309 | ≤ 100 nM |  |  | 
5 | COc1cc2c(cc1Nc1ncc(Cl)c(N3CC(C(=O)NS(C)(=O)=O)c4ccccc43)n1)CN(C)CC2 (stereo not shown) [Example 98] | > 1000 nM | 508 | ≤ 100 nM |  |  | 
6 | COc1cc2c(cc1Nc1ncc(Cl)c(-n3cc(C4(O)COC4)c4ccccc43)n1)CN(C)CC2 [Example 93] | > 1000 nM |  | 100 to 500 nM |  |  | 
7 | COc1cc2c(cc1Nc1ncc(Cl)c(N3CC(C)(CC(=O)O)c4ccccc43)n1)CNCC2 (stereo not shown) [Example 160, 2-(1-(5-Chloro-2-((6-methoxy-1,2,3,4-tetrahydroisoquinolin-7-yl)amino)pyrimidin-4-yl)-3-methylindolin-3-yl)acetic acid methanesulfonic acid] | ≤ 100 nM | 97 | ≤ 100 nM |  |  | 
8 | COc1cc2c(cc1Nc1ncc(Cl)c(-c3nn(CC(=O)O)c4ccccc34)n1)CN(C)CC2 [Example 162, 2-(3-(5-Chloro-2-((6-methoxy-2-methyl-1,2,3,4-tetrahydroisoquinolin-7-yl)amino)pyrimidin-4-yl)-1H-indazol-1-yl)acetic acid] | > 1000 nM | 415 | ≤ 100 nM |  |  | 
9 | COc1cc2c(cc1Nc1ncc(Cl)c(-n3cc(C(=O)N(C)C)c4ccccc43)n1)CN(C)CC2 [Example 8] |  |  | ≤ 100 nM | > 1000 nM | >2457 | ≤ 100 nM
10 | COc1cc2c(cc1Nc1ncc(Cl)c(-n3cc(CC#N)c4ccccc43)n1)CN(C)CC2 [Example 134] | 500 to 1000 nM | 243 | ≤ 100 nM |  |  | 
11 | COc1cc2c(cc1Nc1ncc(Cl)c(N3CC(C)(CC(=O)O)c4cc(F)c(F)cc43)n1)CN(C)CC2 (stereo not shown) [Example 154] | 100 to 500 nM | 430 | ≤ 100 nM |  |  | 
12 | COc1cc2c(cc1Nc1ncc(C(F)(F)F)c(-n3ccc4ccccc43)n1)CN(C)CC2 [Example 10, N-(4-(1H-indol-1-yl)-5-(trifluoromethyl)pyrimidin-2-yl)-6-methoxy-2-methyl-1,2,3,4-tetrahydroisoquinolin-7-amine] | > 1000 nM | >298 | ≤ 100 nM |  |  | 
13 | COc1cc2c(cc1Nc1ncc(Cl)c(-n3cc(Cc4nn[nH]n4)c4ccccc43)n1)CN(C)CC2 [Example 135, N-(4-(3-((2H-tetrazol-5-yl)methyl)-1H-indol-1-yl)-5-chloropyrimidin-2-yl)-6-methoxy-2-methyl-1,2,3,4-tetrahydroisoquinolin-7-amine] | 500 to 1000 nM | 269 | ≤ 100 nM |  |  | 
14 | COc1cc2c(cc1Nc1ncc(Cl)c(N3CC(C(=O)O)C4(CCCC4)C3)n1)CN(C)CC2 (stereo not shown) [Example 169, 2-(5-Chloro-2-((6-methoxy-2-methyl-1,2,3,4-tetrahydroisoquinolin-7-yl)amino)pyrimidin-4-yl)-2-azaspiro[4.4]nonane-4-carboxylic acid] | > 1000 nM | 1482 | ≤ 100 nM |  |  | 
15 | COc1cc2c(cc1Nc1ncc(Cl)c(-n3cc(CC(=O)O)c4cc(F)ccc43)n1)CN(C)CC2 [Example 138] | 100 to 500 nM | 382 | ≤ 100 nM |  |  | 
16 | CCOC(=O)CC1(C)CN(c2nc(Nc3cc4c(cc3OC)CCN(C)C4)ncc2Cl)c2ccccc21 (stereo not shown) [Example 149] | > 1000 nM | >944 | ≤ 100 nM |  |  | 

The next lines start with the values.

Row | IC50 [1, 3] | JAKs/HPK1 IC50 Ratio, B* [1, 4] | IC50 [2, 5] | IC50 ([1]; N*: testing performed in a second testing facility, read-out: JAK3 IC50 (nM) Relative, N*) | JAKs/HPK1 IC50 Ratio, N* ([1]; ratio of JAK3 IC50 to HPK1 IC50, second testing facility) | IC50 ([2]; N*: testing performed in a second testing facility, read-out: HPK1 IC50 (nM) Relative, N*) | SMILES
17 | > 1000 nM | 393 | ≤ 100 nM |  |  |  | COc1cc2c(cc1Nc1ncc(Cl)c(N3CCc4c(C(F)F)cccc43)n1)CN(C)CC2 [Example 92, N-(5-chloro-4-(4-(difluoromethyl)indolin-1-yl)pyrimidin-2-yl)-6-methoxy-2-methyl-1,2,3,4-tetrahydroisoquinolin-7-amine]
18 | 100 to 500 nM | 280 | ≤ 100 nM |  |  |  | COc1cc2c(cc1Nc1ncc(Cl)c(N3CC(CC(=O)O)c4ccccc43)n1)CN(C)CC2 (stereo not shown) [Example 128]
19 | ≤ 100 nM | 60 | ≤ 100 nM |  |  |  | COc1cc2c(cc1Nc1ncc(Cl)c(N3CC(C)(CO)c4ccccc43)n1)CN(C)CC2 (stereo not shown) [Example 123]
20 | > 1000 nM | 174 | ≤ 100 nM |  |  |  | CN1CCc2cc(Cl)c(Nc3ncc(Cl)c(N4CCc5ccccc54)n3)cc2C1 [Example 15, 6-Chloro-N-(5-chloro-4-(indolin-1-yl)pyrimidin-2-yl)-2-methyl-1,2,3,4-tetrahydroisoquinolin-7-amine]
21 | 500 to 1000 nM | 62 | ≤ 100 nM |  |  |  | COc1cc2c(cc1Nc1ncc(Cl)c(N3CCc4cc(Cl)ccc43)n1)CN(C)CC2 [Example 13, N-(5-chloro-4-(5-chloroindolin-1-yl)pyrimidin-2-yl)-6-methoxy-2-methyl-1,2,3,4-tetrahydroisoquinolin-7-amine]
22 | > 1000 nM |  | ≤ 100 nM |  |  |  | COc1cc2c(cc1Nc1ncc(Cl)c(N3CC(P(C)(C)=O)c4ccccc43)n1)CN(C)CC2 (stereo not shown) [Example 88]
23 | > 1000 nM | 373 | ≤ 100 nM |  |  |  | COc1cc2c(cc1Nc1ncc(Cl)c(N3CC(C(=O)NO)c4ccccc43)n1)CN(C)CC2 (stereo not shown) [Example 101, 1-(5-Chloro-2-((6-methoxy-2-methyl-1,2,3,4-tetrahydroisoquinolin-7-yl)amino)pyrimidin-4-yl)-N-hydroxyindoline-3-carboxamide]
24 | > 1000 nM | 67 | ≤ 100 nM |  |  |  | COc1cc2c(cc1Nc1ncc(Cl)c(N3CCc4cc(P(C)(C)=O)ccc43)n1)CN(C)CC2 [Example 86]
25 | ≤ 100 nM | 9 | ≤ 100 nM |  |  |  | COc1cc2c(cc1Nc1ncc(Cl)c(N3CC(C)(C(=O)O)c4ccc(F)cc43)n1)CN(C)CC2 (stereo not shown) [Example 126]
26 | > 1000 nM | >2603 | ≤ 100 nM |  |  |  | COc1cc2c(cc1Nc1ncc(Cl)c(N3CC(C(=O)N(C)O)c4ccccc43)n1)CN(C)CC2 (stereo not shown) [Example 102]
27 | 500 to 1000 nM | 444 | ≤ 100 nM |  |  |  | COc1cc2c(cc1Nc1ncc(Cl)c(N3CC(S(C)(=O)=O)c4ccccc43)n1)CN(C)CC2 (stereo not shown) [Example 81, N-(5-chloro-4-(3-(methylsulfonyl)indolin-1-yl)pyrimidin-2-yl)-6-methoxy-2-methyl-1,2,3,4-tetrahydroisoquinolin-7-amine]
28 | > 1000 nM | 80 | ≤ 100 nM |  |  |  | COc1cc2c(cc1Nc1ncc(Cl)c(N3C[C@](C)(C(=O)O)c4ccccc43)n1)CN(C)CC2 (single isomer, unassigned) [Example 118]
29 | 100 to 500 nM |  | ≤ 100 nM |  |  |  | COc1cc2c(cc1Nc1ncc(Cl)c(N3CC4(CC4)c4ccccc43)n1)CN(C)CC2 [Example 84, N-(5-chloro-4-(spiro[cyclopropane-1,3′-indolin]-1′-yl)pyrimidin-2-yl)-6-methoxy-2-methyl-1,2,3,4-tetrahydroisoquinolin-7-amine]
30 | ≤ 100 nM | 10 | ≤ 100 nM |  |  |  | COc1cc2c(cc1Nc1ncc(Cl)c(N3C[C@@](C)(C(=O)O)c4ccccc43)n1)CN(C)CC2 (single isomer, unassigned) [Example 119]
31 | > 1000 nM | 1275 | ≤ 100 nM |  |  |  | COC(=O)C1CN(c2nc(Nc3cc4c(cc3OC)CCN(C)C4)ncc2Cl)c2ccccc21 (stereo not shown) [Example 115, Methyl 1-(5-chloro-2-((6-methoxy-2-methyl-1,2,3,4-tetrahydroisoquinolin-7-yl)amino)pyrimidin-4-yl)indoline-3-carboxylate]
32 | > 1000 nM | 890 | ≤ 100 nM |  |  |  | COC(=O)C1(C)CN(c2nc(Nc3cc4c(cc3OC)CCN(C)C4)ncc2Cl)c2ccccc21 (stereo not shown) [Example 116]
33 | 100 to 500 nM | 171 | ≤ 100 nM |  |  |  | COc1cc2c(cc1Nc1ncc(Cl)c(N3CC(C)(CC(=O)O)c4cc(F)ccc43)n1)CN(C)CC2 (stereo not shown) [Example 150, 2-(1-(5-Chloro-2-((6-methoxy-2-methyl-1,2,3,4-tetrahydroisoquinolin-7-yl)amino)pyrimidin-4-yl)-5-fluoro-3-methylindolin-3-yl)acetic acid]
34 | > 1000 nM | 293 | ≤ 100 nM |  |  |  | COc1cc2c(cc1Nc1ncc(Cl)c(-n3nc(C(=O)O)c4ccccc43)n1)CN(C)CC2 [Example 113]
